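Where inhibition never reached the appropriate level, the endpoint shown equals the highest concentration tested. Otherwise, values were interpolated linearly from a five-concentration, 48-hour dose response in 96-well plates. Here, GI50 denotes the concentration required for 50% inhibition of growth.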 The source made the active and inactive calls. Rule as the data show it: active = GI50 up to about 1.1 µM and inactive = higher. Bounds are passed on as bounds.

Among the test systems are OVCAR-3; HOP-62; UO-31; U-251; K562; UACC-62; T47D; OVCAR-5; CCRF-CEM; SF-295; SR; MDA-N; MDA-MB-231; HCT-116; RPMI-8226; KM12; SF-539; SNB-75; MCF7; SK-OV-3.
What all share (experiment): inhibition of tumour cell growth, NCI panel, 48 h

As to `COc1cc(NCCC(=O)O)c2ncccc2c1`, the GI50 in the test with OVCAR-3, in the test on HOP-62, in the test on UO-31, in the test with U-251, in the test with K562 and with UACC-62 was > 100 µM (inactive) throughout. For the same compound, the GI50 with T47D, in the test with OVCAR-5, in the test with CCRF-CEM, in the test with SF-295, in the test with SR and in the test on MDA-N was > 100 µM (inactive) each time. Moreover, the GI50 with MDA-MB-231 and in the test with HCT-116 was > 100 µM (inactive) in each case.

With `O=C(O)c1oc(C(=O)O)c(C(=O)O)c1C(=O)O`, the GI50 with OVCAR-3, in the test on HOP-62, in the test on UO-31, in the test on RPMI-8226, with KM12 and in the test with U-251 was > 100 µM (inactive) each time. Besides, the GI50 with K562, in the test on UACC-62, in the test on T47D, in the test on OVCAR-5, with CCRF-CEM and with SF-295 was > 100 µM (inactive) in each case. In addition, the GI50 in the test with SR, in the test with MDA-N, in the test on MDA-MB-231 and in the test with HCT-116 was > 100 µM (inactive) in each case.

As to `[N-]=[N+]=Nc1cc(=O)n(-c2ccccc2)c(=O)n1-c1ccccc1`, the GI50 in the test with OVCAR-3, with HOP-62, with SF-539, with UO-31, with RPMI-8226 and with KM12 was > 100 µM (inactive) each time. For the same compound, the GI50 in the test on U-251 is > 100 µM (inactive); in the test with K562, > 100 µM (inactive); with UACC-62, 67 µM (inactive); with T47D, > 100 µM (inactive); in the test on OVCAR-5, > 100 µM (inactive); in the test with CCRF-CEM, > 100 µM (inactive). Further, the GI50 in the test with SNB-75, in the test with SF-295, with MCF7, in the test on SK-OV-3, with SR and with MDA-MB-231 was > 100 µM (inactive) throughout. For the same compound, the GI50 in the test on HCT-116 was > 100 µM (inactive).

As to `C1CN2N3CCCC23C1` (stereo not given), the GI50 with OVCAR-3, with HOP-62, in the test on SF-539, with UO-31, with RPMI-8226 and with KM12 was > 100 µM (inactive) in each case. Further, the GI50 in the test with U-251, in the test with K562, in the test on UACC-62, with OVCAR-5, with CCRF-CEM and with SNB-75 was > 100 µM (inactive) in each case. The GI50 in the test on SF-295, in the test with SK-OV-3, in the test with SR and with HCT-116 was > 100 µM (inactive) throughout.

As to `Nc1ccc(C23CC4CC(C2)CC(c2ccc(N)cc2)(C4)C3)cc1`, the GI50 with OVCAR-3 is 48.5 µM (inactive); with HOP-62, 60 µM (inactive); in the test on SF-539, 16.4 µM (inactive); in the test with UO-31, 48.6 µM (inactive); in the test with RPMI-8226 it was 10.7 µM (inactive); with KM12 it was > 100 µM (inactive). Besides, the GI50 was 14.3 µM (inactive) in the test with U-251; 14.6 µM (inactive) in the test on K562; 29 µM (inactive) with UACC-62; 27.7 µM (inactive) in the test with OVCAR-5; 15.7 µM (inactive) in the test with CCRF-CEM; 31.8 µM (inactive) with MCF7. For the same compound, the GI50 is 14.6 µM (inactive) in the test with SR, 37.7 µM (inactive) in the test on MDA-N, 1.96 µM (inactive) in the test with MDA-MB-231 and 44.3 µM (inactive) with HCT-116.

On to `Cc1ccc2nc3ccccc3c(C3C4C(=O)N(c5ccc(F)cc5)C(=O)C4ON3C(C(N)=O)c3ccccc3)c2c1` (stereo not given), for which the GI50 is 26.7 µM (inactive) in the test on OVCAR-3; 71.8 µM (inactive) in the test on HOP-62; 27.6 µM (inactive) in the test on SF-539; 36.1 µM (inactive) in the test with UO-31; 25.3 µM (inactive) in the test with RPMI-8226; 32.4 µM (inactive) with KM12. For the same compound, the GI50 was 29.4 µM (inactive) with U-251; 50.6 µM (inactive) in the test on K562; 20.6 µM (inactive) in the test on UACC-62; 84.1 µM (inactive) with T47D; 25.8 µM (inactive) with OVCAR-5; 38.5 µM (inactive) in the test on CCRF-CEM. Moreover, the GI50 in the test with SNB-75 was 76.9 µM (inactive); in the test on SF-295 it was 28.8 µM (inactive); in the test on MCF7 it was 23.4 µM (inactive); with SK-OV-3, 33.2 µM (inactive); with SR, 40.9 µM (inactive); with MDA-MB-231, 39.8 µM (inactive). The GI50 with HCT-116 was 26.4 µM (inactive).

Regarding `CCCCCCCCCCC(O)CCCCCCC(=O)O` (stereo not given), the GI50 in the test on OVCAR-3 is 19.9 µM (inactive); in the test with HOP-62, 35.9 µM (inactive); in the test with SF-539 it was 24.3 µM (inactive); with UO-31 it was 29.9 µM (inactive); in the test on RPMI-8226, 10.2 µM (inactive); with KM12, 16.3 µM (inactive). In addition, the GI50 with U-251 is 14.9 µM (inactive); with K562, 13.2 µM (inactive); in the test on UACC-62, 19.8 µM (inactive); with OVCAR-5, 29.4 µM (inactive); in the test on CCRF-CEM, 27.5 µM (inactive); with SNB-75 it was 42.5 µM (inactive). Also, the GI50 in the test with SF-295 was 27.1 µM (inactive); in the test with SK-OV-3, 78.3 µM (inactive); with SR, 15.1 µM (inactive); in the test on HCT-116, 17.2 µM (inactive).

Regarding `CC(C)Cc1ccc(C(C)/C=C2\CCC(CN(C)C)C2=O)cc1` (stereo not given), the GI50 in the test on OVCAR-3 is 12.7 µM (inactive); with HOP-62, 9.23 µM (inactive); with SF-539, 16.5 µM (inactive); in the test with UO-31, 10.9 µM (inactive); with RPMI-8226, 1.56 µM (inactive); in the test on KM12, 5.27 µM (inactive). Also, the GI50 in the test with U-251 was 16.7 µM (inactive); with K562, 2.86 µM (inactive); in the test on UACC-62, 17.5 µM (inactive); in the test with OVCAR-5 it was 23 µM (inactive); with CCRF-CEM, 3.92 µM (inactive); in the test on SNB-75, 14.1 µM (inactive). Further, the GI50 was 14.7 µM (inactive) in the test on SF-295; 4.43 µM (inactive) with MCF7; 19.5 µM (inactive) in the test on SK-OV-3; 3.2 µM (inactive) in the test on SR; 10.2 µM (inactive) with MDA-N; 2.28 µM (inactive) in the test on MDA-MB-231. For the same compound, in the test on HCT-116, the GI50 is 7.05 µM (inactive).

Consider `Nc1ncc(/C=N/O)c(NCC2(CO)CC(CCc3ccccc3)C2)n1` (stereo not given), for which the GI50 was 11 µM (inactive) in the test on OVCAR-3; 11.3 µM (inactive) in the test on HOP-62; 13.8 µM (inactive) in the test with SF-539; 5.45 µM (inactive) in the test on UO-31; 5.73 µM (inactive) in the test with RPMI-8226; 14.3 µM (inactive) with KM12. Also, the GI50 is 12 µM (inactive) with U-251; 0.144 µM (active) with K562; 12.3 µM (inactive) in the test with UACC-62; 0.0111 µM (active) in the test on T47D; 16.9 µM (inactive) with OVCAR-5; 14.7 µM (inactive) with CCRF-CEM. The GI50 with SNB-75 was 14.5 µM (inactive); in the test with SF-295, 1.02 µM (active); in the test with MCF7 it was 4.58 µM (inactive); in the test on SR, 4.36 µM (inactive); in the test with MDA-MB-231, 9.71 µM (inactive); in the test on HCT-116 it was 0.0569 µM (active).

Take `COC1C(OC(=O)/C=C/C=C/C=C/C=C\C(=O)O)CCC2(CO2)C1C1(C)OC1CC=C(C)C` (stereo not given): the GI50 in the test on OVCAR-3, with HOP-62, with SF-539, in the test on UO-31, in the test on RPMI-8226 and in the test on KM12 was > 100 µM (inactive) throughout. Moreover, the GI50 with U-251 is > 100 µM (inactive); with K562 it was > 56.5 µM (inactive); in the test on UACC-62, > 100 µM (inactive); in the test on T47D, > 100 µM (inactive); with OVCAR-5, > 100 µM (inactive); with CCRF-CEM, > 100 µM (inactive). Moreover, the GI50 in the test with SNB-75 is > 100 µM (inactive); in the test on SF-295, > 100 µM (inactive); in the test with MCF7 it was > 100 µM (inactive); in the test with SK-OV-3, > 89.7 µM (inactive); with SR it was > 100 µM (inactive); in the test with MDA-MB-231, > 100 µM (inactive). For the same compound, the GI50 in the test with HCT-116 was > 100 µM (inactive).

In the case of `O=[N+]([O-])c1cccc2c(/N=N/c3ccc4ccccc4c3O)c(O)cc(S(=O)(=O)O)c12`, the GI50 in the test with OVCAR-3 is 3.47 µM (inactive); in the test with HOP-62, 18.2 µM (inactive); in the test on UO-31, 6.03 µM (inactive); in the test with RPMI-8226, > 100 µM (inactive); with KM12, 55.6 µM (inactive); with U-251 it was 9.59 µM (inactive). Moreover, the GI50 is > 100 µM (inactive) with K562; 7.78 µM (inactive) in the test on UACC-62; 34.8 µM (inactive) in the test with OVCAR-5; 3.05 µM (inactive) with CCRF-CEM; 44 µM (inactive) with SNB-75; 20.9 µM (inactive) with SF-295. The GI50 in the test on SK-OV-3 was 76.2 µM (inactive); in the test with SR it was 2.82 µM (inactive); with MDA-N it was 31.1 µM (inactive); in the test with HCT-116, 31 µM (inactive).

For the compound `O=S(=O)(O)c1ccc(O)c(/N=N/c2c(O)ccc3ccccc23)c1`, the GI50 with OVCAR-3 is 34.6 µM (inactive); with HOP-62 it was > 100 µM (inactive); in the test with UO-31, > 100 µM (inactive); in the test with RPMI-8226, > 100 µM (inactive); in the test on KM12, > 100 µM (inactive); in the test on U-251, 73.6 µM (inactive). In addition, the GI50 in the test on K562 is > 100 µM (inactive); in the test with UACC-62 it was > 100 µM (inactive); in the test on T47D it was > 100 µM (inactive); with OVCAR-5, > 100 µM (inactive); in the test with CCRF-CEM it was 36.6 µM (inactive); in the test on SNB-75, > 100 µM (inactive). For the same compound, the GI50 in the test with SF-295, in the test with SK-OV-3, in the test on MDA-N, in the test with MDA-MB-231 and in the test on HCT-116 was > 100 µM (inactive) throughout.

Values taken from ChEMBL document CHEMBL1201862, “PubChem BioAssay data set” (2004).
